Test results: patent US20100179188A1, “NITROXIDE RADICAL AS TREATMENT FOR NEURODEGENERATION” (Office of Technology Transfer, NIH, priority 2007, published 2010)

Tests used:
[1] = test system: ferric iron accumulation; assay: Perls' DAB stain for ferric iron in cerebellar folia and striatum; assay type: in vivo, mice; details: cerebellar folia and striatum of IRP2−/− animals on Tempo1 diet
Protocol: Diet: The mice were weaned 3-4 weeks after their birth. Immediately after weaning, mice were maintained on either a Tempo1-supplemented or control diet. In the Tempo1-supplemented diet, powdered Tempo1 was uniformly mixed with bacon-flavored mouse chow by a “cold press” technique (Bio-Serv, Frenchtown, N.J., USA) at a concentration of 10 mg/g of food. Bacon-flavored chow without Tempo1 was used as the control diet.
Perl's DAB iron staining: After dewaxing and rehydrating, paraffin-embeded tissue sections were stained in prewarmed staining solution (5% potassium ferrocyanide 15.0 ml, 5% hydrochloric acid 15.0 ml, 15 sec in micro oven) for 5 min. The sections were rinsed with distilled water and Tris-buffered saline pH7.4, then were stained with DAB staining solution (20 mg DAB, 50 μl 30% H2O2, 20 ml Tris-buffered saline pH 7.4) for 30 min at room temperature. After rinsing with distilled water, the sections were mounted with Crystal Mount mounting solution (Sigma) and were observed and taken pictures with Nikon Eclipse E600 fluorescence microscope.
Cerebellar folia and striatum of wild type and IRP2−/− mice that were maintained on a control diet or on a Tempo1-supplemented diet were analyzed for ferric iron accumulation using Perls' DAB stain. […]

[2] = molecular target: T1, IRP1 (Mus musculus, UniProt P28271); assay: IRE-binding activity of IRP1 in IRP2−/− embryonic fibroblasts (gel shift); assay type: cell-based; parameters: Embryonic fibroblasts of 13-day old embryos were isolated from wild type, IRP1−/− mice and IRP2−/− mice; endogenous in cells; host or cells: mouse embryonic fibroblasts (wild type and IRP2−/−); details: 0.3 and 1.0 mM, 16 h
T1 sequence (P28271 1-889): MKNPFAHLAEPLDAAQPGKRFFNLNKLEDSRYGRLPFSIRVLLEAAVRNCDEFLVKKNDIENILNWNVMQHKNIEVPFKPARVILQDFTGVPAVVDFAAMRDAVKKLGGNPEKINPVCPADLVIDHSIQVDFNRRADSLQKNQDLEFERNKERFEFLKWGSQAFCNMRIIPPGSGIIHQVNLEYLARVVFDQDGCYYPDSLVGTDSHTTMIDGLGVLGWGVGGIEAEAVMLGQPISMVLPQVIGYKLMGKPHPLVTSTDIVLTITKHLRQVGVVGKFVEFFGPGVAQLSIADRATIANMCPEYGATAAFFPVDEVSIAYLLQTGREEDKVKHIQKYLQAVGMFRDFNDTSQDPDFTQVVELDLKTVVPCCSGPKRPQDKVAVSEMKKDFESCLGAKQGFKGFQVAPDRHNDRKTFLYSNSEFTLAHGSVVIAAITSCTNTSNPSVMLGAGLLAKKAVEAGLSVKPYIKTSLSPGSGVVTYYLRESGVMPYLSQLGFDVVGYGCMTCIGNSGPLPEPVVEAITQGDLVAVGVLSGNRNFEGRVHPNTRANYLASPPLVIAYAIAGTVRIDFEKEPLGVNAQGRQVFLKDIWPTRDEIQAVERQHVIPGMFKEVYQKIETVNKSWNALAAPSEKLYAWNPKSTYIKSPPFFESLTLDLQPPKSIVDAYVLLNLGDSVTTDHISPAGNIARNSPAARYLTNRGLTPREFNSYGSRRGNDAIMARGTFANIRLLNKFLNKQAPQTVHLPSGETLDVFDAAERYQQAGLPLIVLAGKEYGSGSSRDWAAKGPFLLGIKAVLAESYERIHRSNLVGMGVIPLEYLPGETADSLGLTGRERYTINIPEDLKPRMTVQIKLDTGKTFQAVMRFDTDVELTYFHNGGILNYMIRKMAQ
Protocol: Cells: Embryonic fibroblasts of 13-day old embryos were isolated from wild type, IRP1−/− mice and IRP2−/− mice as described in LaVaute et al. supra. Myc-tagged HEK 293 Tet-on cell line, in which IRP2 expression was inducible, was prepared and cultured as described Bourdon et al., Blood Cells Mol Dis, 31, 247-255 (2003). Erythroblasts were harvested from bone marrow and purified as described in Cooperman et al., Blood, 106, 1084-1091 (2005).
RNA mobility shift assays: Gel retardation assays were performed as described in Meyron-Holtz et al., EMBO J, 23, 386-395 (2004). Tissue lysates were prepared in an anaerobic chamber as described above in oxygen-depleted lysis buffer containing 10 mM HEPES (pH 7.2), 3 mM MgC12, 40 mM KCl, 5% glycerol, 0.2% Nonidet P-40, 5 mM DTT, 1 mM AEBSF, 10 μg/ml. Leupeptin and complete TM EDTA free protease inhibitor cocktail (Roche Applied Science, Indiana). […]
To study the effect of Tempo1 on the IRE-binding activity of IRP1, IRP2−/− embryonic fibroblasts that were maintained in culture supplemented with 0, 0.3 and 1.0 mM Tempo1, with or without ferric ammonium citrate (FAC), for 16 h. […] Quantification was performed with the IQMac (IRP1 activity) or NIH Image (protein levels) program. Error bars represent the standard deviation calculated from the results of two different sets of experiments.

## CC1(C)CC(O)CC(C)(C)N1[O] [Tempo1]
[1]
  ferric iron staining: decreased
[2]
  IRE-binding activity of IRP1: activate IRP1
